± gives the expanded uncertainty stated by the source.
Assay: xn = mol fraction of the nth substance listed
Settings: 298.15 K, 100 kPa, Liquid; for viscosity: Capillary tube (Ostwald / Ubbelohde) method; for electrical conductivity: Alternating current cell with electrodes

CCCC[N+]1(C)CCCC1.N#CN=C=[N-] [1-butyl-1-methylpyrrolidinium dicyanamide] + O=C1CCCO1
viscosity (x1 = 0.4985): 11.38 ± 0.25 mPa·s
viscosity (x1 = 0.6954): 18.62 ± 0.42 mPa·s
viscosity (x1 = 0.9013): 28.31 ± 0.64 mPa·s
viscosity (x1 = 1): 33.71 ± 0.77 mPa·s
electrical conductivity (Frequency=0.0005 MHz, x1 = 0.0463): 1.46 ± 0.026 S/m
electrical conductivity (Frequency=0.0005 MHz, x1 = 0.0987): 2.2 ± 0.027 S/m
electrical conductivity (Frequency=0.0005 MHz, x1 = 0.1449): 2.51 ± 0.026 S/m
electrical conductivity (Frequency=0.0005 MHz, x1 = 0.1859): 2.65 ± 0.027 S/m
electrical conductivity (Frequency=0.0005 MHz, x1 = 0.2493): 2.606 ± 0.026 S/m
electrical conductivity (Frequency=0.0005 MHz, x1 = 0.3029): 2.526 ± 0.025 S/m
electrical conductivity (Frequency=0.0005 MHz, x1 = 0.3845): 2.35 ± 0.024 S/m
electrical conductivity (Frequency=0.0005 MHz, x1 = 0.4985): 2.08 ± 0.021 S/m
electrical conductivity (Frequency=0.0005 MHz, x1 = 0.6954): 1.67 ± 0.017 S/m
electrical conductivity (Frequency=0.0005 MHz, x1 = 0.9013): 1.39 ± 0.014 S/m
electrical conductivity (Frequency=0.0005 MHz, x1 = 1): 1.315 ± 0.013 S/m
electrical conductivity (Frequency=0.001 MHz, x1 = 0.0463): 1.47 ± 0.026 S/m
electrical conductivity (Frequency=0.001 MHz, x1 = 0.0987): 2.2 ± 0.027 S/m
electrical conductivity (Frequency=0.001 MHz, x1 = 0.1449): 2.51 ± 0.026 S/m
electrical conductivity (Frequency=0.001 MHz, x1 = 0.1859): 2.65 ± 0.027 S/m
electrical conductivity (Frequency=0.001 MHz, x1 = 0.2493): 2.608 ± 0.026 S/m
electrical conductivity (Frequency=0.001 MHz, x1 = 0.3029): 2.53 ± 0.026 S/m
electrical conductivity (Frequency=0.001 MHz, x1 = 0.3845): 2.36 ± 0.024 S/m
electrical conductivity (Frequency=0.001 MHz, x1 = 0.4985): 2.08 ± 0.021 S/m
electrical conductivity (Frequency=0.001 MHz, x1 = 0.6954): 1.68 ± 0.017 S/m
electrical conductivity (Frequency=0.001 MHz, x1 = 0.9013): 1.39 ± 0.014 S/m
electrical conductivity (Frequency=0.001 MHz, x1 = 1): 1.316 ± 0.013 S/m
electrical conductivity (Frequency=0.0015 MHz, x1 = 0.0463): 1.47 ± 0.026 S/m
electrical conductivity (Frequency=0.0015 MHz, x1 = 0.0987): 2.21 ± 0.027 S/m
electrical conductivity (Frequency=0.0015 MHz, x1 = 0.1449): 2.51 ± 0.026 S/m
electrical conductivity (Frequency=0.0015 MHz, x1 = 0.1859): 2.66 ± 0.027 S/m
electrical conductivity (Frequency=0.0015 MHz, x1 = 0.2493): 2.61 ± 0.026 S/m
electrical conductivity (Frequency=0.0015 MHz, x1 = 0.3029): 2.53 ± 0.026 S/m
electrical conductivity (Frequency=0.0015 MHz, x1 = 0.3845): 2.36 ± 0.024 S/m
electrical conductivity (Frequency=0.0015 MHz, x1 = 0.4985): 2.08 ± 0.021 S/m
electrical conductivity (Frequency=0.0015 MHz, x1 = 0.6954): 1.68 ± 0.017 S/m
electrical conductivity (Frequency=0.0015 MHz, x1 = 0.9013): 1.39 ± 0.014 S/m
electrical conductivity (Frequency=0.0015 MHz, x1 = 1): 1.316 ± 0.013 S/m
electrical conductivity (Frequency=0.002 MHz, x1 = 0.0463): 1.47 ± 0.026 S/m
electrical conductivity (Frequency=0.002 MHz, x1 = 0.0987): 2.21 ± 0.027 S/m
electrical conductivity (Frequency=0.002 MHz, x1 = 0.1449): 2.51 ± 0.026 S/m
electrical conductivity (Frequency=0.002 MHz, x1 = 0.1859): 2.66 ± 0.027 S/m
electrical conductivity (Frequency=0.002 MHz, x1 = 0.2493): 2.61 ± 0.026 S/m
electrical conductivity (Frequency=0.002 MHz, x1 = 0.3029): 2.54 ± 0.026 S/m
electrical conductivity (Frequency=0.002 MHz, x1 = 0.3845): 2.36 ± 0.024 S/m
electrical conductivity (Frequency=0.002 MHz, x1 = 0.4985): 2.08 ± 0.021 S/m
electrical conductivity (Frequency=0.002 MHz, x1 = 0.6954): 1.68 ± 0.017 S/m
electrical conductivity (Frequency=0.002 MHz, x1 = 0.9013): 1.39 ± 0.014 S/m
electrical conductivity (Frequency=0.002 MHz, x1 = 1): 1.316 ± 0.013 S/m
electrical conductivity (Frequency=0.0025 MHz, x1 = 0.0463): 1.47 ± 0.026 S/m
electrical conductivity (Frequency=0.0025 MHz, x1 = 0.0987): 2.21 ± 0.027 S/m
electrical conductivity (Frequency=0.0025 MHz, x1 = 0.1449): 2.51 ± 0.026 S/m
electrical conductivity (Frequency=0.0025 MHz, x1 = 0.1859): 2.67 ± 0.027 S/m
electrical conductivity (Frequency=0.0025 MHz, x1 = 0.2493): 2.611 ± 0.026 S/m
electrical conductivity (Frequency=0.0025 MHz, x1 = 0.3029): 2.54 ± 0.026 S/m
electrical conductivity (Frequency=0.0025 MHz, x1 = 0.3845): 2.36 ± 0.024 S/m
electrical conductivity (Frequency=0.0025 MHz, x1 = 0.4985): 2.08 ± 0.021 S/m
electrical conductivity (Frequency=0.0025 MHz, x1 = 0.6954): 1.68 ± 0.017 S/m
electrical conductivity (Frequency=0.0025 MHz, x1 = 0.9013): 1.39 ± 0.014 S/m
electrical conductivity (Frequency=0.0025 MHz, x1 = 1): 1.317 ± 0.013 S/m
electrical conductivity (Frequency=0.003 MHz, x1 = 0.0463): 1.47 ± 0.026 S/m
electrical conductivity (Frequency=0.003 MHz, x1 = 0.0987): 2.21 ± 0.027 S/m
electrical conductivity (Frequency=0.003 MHz, x1 = 0.1449): 2.51 ± 0.026 S/m
electrical conductivity (Frequency=0.003 MHz, x1 = 0.1859): 2.67 ± 0.027 S/m
electrical conductivity (Frequency=0.003 MHz, x1 = 0.2493): 2.611 ± 0.026 S/m
electrical conductivity (Frequency=0.003 MHz, x1 = 0.3029): 2.54 ± 0.026 S/m
electrical conductivity (Frequency=0.003 MHz, x1 = 0.3845): 2.36 ± 0.024 S/m
electrical conductivity (Frequency=0.003 MHz, x1 = 0.4985): 2.08 ± 0.021 S/m
electrical conductivity (Frequency=0.003 MHz, x1 = 0.6954): 1.68 ± 0.017 S/m
electrical conductivity (Frequency=0.003 MHz, x1 = 0.9013): 1.39 ± 0.014 S/m
electrical conductivity (Frequency=0.003 MHz, x1 = 1): 1.317 ± 0.013 S/m
electrical conductivity (Frequency=0.00347222 MHz, x1 = 0.0463): 1.47 ± 0.026 S/m
electrical conductivity (Frequency=0.00347222 MHz, x1 = 0.0987): 2.21 ± 0.027 S/m
electrical conductivity (Frequency=0.00347222 MHz, x1 = 0.1449): 2.51 ± 0.026 S/m
electrical conductivity (Frequency=0.00347222 MHz, x1 = 0.1859): 2.67 ± 0.027 S/m
electrical conductivity (Frequency=0.00347222 MHz, x1 = 0.2493): 2.612 ± 0.026 S/m
electrical conductivity (Frequency=0.00347222 MHz, x1 = 0.3029): 2.54 ± 0.026 S/m
electrical conductivity (Frequency=0.00347222 MHz, x1 = 0.3845): 2.36 ± 0.024 S/m
electrical conductivity (Frequency=0.00347222 MHz, x1 = 0.4985): 2.08 ± 0.021 S/m
electrical conductivity (Frequency=0.00347222 MHz, x1 = 0.6954): 1.68 ± 0.017 S/m
electrical conductivity (Frequency=0.00347222 MHz, x1 = 0.9013): 1.39 ± 0.014 S/m
electrical conductivity (Frequency=0.00347222 MHz, x1 = 1): 1.317 ± 0.013 S/m
electrical conductivity (Frequency=0.004 MHz, x1 = 0.0463): 1.47 ± 0.026 S/m
electrical conductivity (Frequency=0.004 MHz, x1 = 0.0987): 2.21 ± 0.027 S/m
electrical conductivity (Frequency=0.004 MHz, x1 = 0.1449): 2.51 ± 0.026 S/m
electrical conductivity (Frequency=0.004 MHz, x1 = 0.1859): 2.67 ± 0.027 S/m
electrical conductivity (Frequency=0.004 MHz, x1 = 0.2493): 2.612 ± 0.026 S/m
electrical conductivity (Frequency=0.004 MHz, x1 = 0.3029): 2.54 ± 0.026 S/m
electrical conductivity (Frequency=0.004 MHz, x1 = 0.3845): 2.36 ± 0.024 S/m
electrical conductivity (Frequency=0.004 MHz, x1 = 0.4985): 2.08 ± 0.021 S/m
electrical conductivity (Frequency=0.004 MHz, x1 = 0.6954): 1.68 ± 0.017 S/m
electrical conductivity (Frequency=0.004 MHz, x1 = 0.9013): 1.39 ± 0.014 S/m
electrical conductivity (Frequency=0.004 MHz, x1 = 1): 1.317 ± 0.013 S/m
electrical conductivity (Frequency=0.00446429 MHz, x1 = 0.0463): 1.47 ± 0.026 S/m
electrical conductivity (Frequency=0.00446429 MHz, x1 = 0.0987): 2.21 ± 0.027 S/m
electrical conductivity (Frequency=0.00446429 MHz, x1 = 0.1449): 2.51 ± 0.026 S/m
electrical conductivity (Frequency=0.00446429 MHz, x1 = 0.1859): 2.67 ± 0.027 S/m
electrical conductivity (Frequency=0.00446429 MHz, x1 = 0.2493): 2.612 ± 0.026 S/m
electrical conductivity (Frequency=0.00446429 MHz, x1 = 0.3029): 2.54 ± 0.026 S/m
electrical conductivity (Frequency=0.00446429 MHz, x1 = 0.3845): 2.36 ± 0.024 S/m
electrical conductivity (Frequency=0.00446429 MHz, x1 = 0.4985): 2.08 ± 0.021 S/m
electrical conductivity (Frequency=0.00446429 MHz, x1 = 0.6954): 1.68 ± 0.017 S/m
electrical conductivity (Frequency=0.00446429 MHz, x1 = 0.9013): 1.39 ± 0.014 S/m
electrical conductivity (Frequency=0.00446429 MHz, x1 = 1): 1.317 ± 0.013 S/m
electrical conductivity (Frequency=0.005 MHz, x1 = 0.0463): 1.47 ± 0.026 S/m
electrical conductivity (Frequency=0.005 MHz, x1 = 0.0987): 2.21 ± 0.027 S/m
electrical conductivity (Frequency=0.005 MHz, x1 = 0.1449): 2.51 ± 0.026 S/m
electrical conductivity (Frequency=0.005 MHz, x1 = 0.1859): 2.67 ± 0.027 S/m
electrical conductivity (Frequency=0.005 MHz, x1 = 0.2493): 2.612 ± 0.026 S/m
